The compounds below were run against T1, USP25 (USP25-His6, Boston Biochem E-546) (Homo sapiens, UniProt Q9UHP3) (assay: Ubiquitin-Rhodamine 110 Assay for USP25 Activity, Example A-2). Settings: Ubiquitin-Rhodamine 110 assay, Example A-2; read-out: USP25 A-2 IC50 range.
T1 construct: His6; purchased Boston Biochem E-546
T1 sequence (Q9UHP3 1-1055): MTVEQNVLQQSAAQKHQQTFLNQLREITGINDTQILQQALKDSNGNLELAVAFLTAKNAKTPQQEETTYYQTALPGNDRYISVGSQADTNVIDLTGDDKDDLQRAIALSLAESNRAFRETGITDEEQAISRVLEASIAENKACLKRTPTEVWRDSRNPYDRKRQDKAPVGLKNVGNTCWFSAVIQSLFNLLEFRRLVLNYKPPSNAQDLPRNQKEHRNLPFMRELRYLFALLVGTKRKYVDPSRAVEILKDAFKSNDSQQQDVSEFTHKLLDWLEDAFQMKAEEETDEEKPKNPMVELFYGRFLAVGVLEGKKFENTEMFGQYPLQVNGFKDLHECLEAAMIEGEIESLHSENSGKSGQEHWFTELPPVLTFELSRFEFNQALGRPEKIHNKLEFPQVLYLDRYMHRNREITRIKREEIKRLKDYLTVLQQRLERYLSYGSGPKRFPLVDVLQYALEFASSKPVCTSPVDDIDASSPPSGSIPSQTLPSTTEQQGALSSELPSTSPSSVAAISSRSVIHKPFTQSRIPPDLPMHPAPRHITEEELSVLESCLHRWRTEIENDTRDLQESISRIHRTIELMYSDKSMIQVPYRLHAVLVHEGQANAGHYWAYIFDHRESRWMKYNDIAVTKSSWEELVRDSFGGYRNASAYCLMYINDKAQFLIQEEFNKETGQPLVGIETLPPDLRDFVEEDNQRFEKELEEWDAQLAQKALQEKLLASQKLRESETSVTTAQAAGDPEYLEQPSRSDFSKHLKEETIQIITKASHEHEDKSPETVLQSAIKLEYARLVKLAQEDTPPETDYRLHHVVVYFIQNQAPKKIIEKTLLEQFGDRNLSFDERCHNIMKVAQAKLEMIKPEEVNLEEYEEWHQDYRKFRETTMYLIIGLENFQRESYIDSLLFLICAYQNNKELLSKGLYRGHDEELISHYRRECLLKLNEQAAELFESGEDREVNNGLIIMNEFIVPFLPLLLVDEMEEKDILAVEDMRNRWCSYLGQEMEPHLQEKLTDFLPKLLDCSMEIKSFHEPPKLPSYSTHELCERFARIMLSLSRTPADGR
Type: biochemical
Outline: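 75 pM USP25-His6 was preincubated 30 min with compound (10-point 3-fold series, 25 μM–1.3 nM) in pH 8.0 Tris buffer with BME, BGG and Triton X-100. Then 25 nM Ub-Rh110 (<<Km) was added for 45 min at room temperature, stopped with citric acid, fluorescence read at 485/535 nm, IC50 by 4-parameter fit.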

`Cc1ccc2c(N)c(C(=O)N[C@H]3COc4cc(N5C[C@@H]6NCCO[C@@H]6C5)ccc4C3)sc2n1` [Example 153, N-[(3R)-7-[(4aS,7aR)-octahydropyrrolo[3,4-b]morpholin-6-yl]-3,4-dihydro-2H-1-benzopyran-3-yl]-3-amino-6-methylthieno[2,3-b]pyridine-2-carboxamide] and `Cc1ccc2c(N)c(C(=O)N[C@H]3COc4cc(N5C[C@@H]6OCCN[C@@H]6C5)ccc4C3)sc2n1` [Example 154, N-[(3R)-7-[(4aR,7aS)-octahydropyrrolo[3,4-b]morpholin-6-yl]-3,4-dihydro-2H-1-benzopyran-3-yl]-3-amino-6-methylthieno[2,3-b]pyridine-2-carboxamide] fall in the same range of IC50: 200 to 2000 nM for the first, 200 to 2000 nM for the second.

Compared with `COC[C@@H]1CNCCN1c1ccc2c(c1)OC[C@H](NC(=O)c1sc3nc(C)ccc3c1N)C2` [Example 155, 3-amino-N-[(3R)-7-[(2S)-2-(methoxymethyl)piperazin-1-yl]-3,4-dihydro-2H-1-benzopyran-3-yl]-6-methylthieno[2,3-b]pyridine-2-carboxamide], `COC[C@H]1CNCCN1c1ccc2c(c1)OC[C@H](NC(=O)c1sc3nc(C)ccc3c1N)C2` [Example 156, 3-amino-N-[(3R)-7-[(21)-2-(methoxymethyl)piperazin-1-yl]-3,4-dihydro-2H-1-benzopyran-3-yl]-6-methylthieno[2,3-b]pyridine-2-carboxamide] is higher in IC50: 50 to 200 nM for the first, 200 to 2000 nM for the second.

`COC[C@H]1CN(c2ccc3c(c2)OC[C@H](NC(=O)c2sc4nc(C)ccc4c2N)C3)CCN1` [Example 157, 3-amino-N-[(3R)-7-[(3R)-3-(methoxymethyl)piperazin-1-yl]-3,4-dihydro-2H-1-benzopyran-3-yl]-6-methylthieno[2,3-b]pyridine-2-carboxamide] and `COC[C@@H]1CN(c2ccc3c(c2)OC[C@H](NC(=O)c2sc4nc(C)ccc4c2N)C3)CCN1` [Example 158, 3-amino-N-[(3R)-7-[(3S)-3-(methoxymethyl)piperazin-1-yl]-3,4-dihydro-2H-1-benzopyran-3-yl]-6-methylthieno[2,3-b]pyridine-2-carboxamide] fall in the same range of IC50: 200 to 2000 nM for the first, 200 to 2000 nM for the second.

First: Cc1cc(C)c2c(N)c(C(=O)N[C@H]3COc4cc(N5CCNCC5)c(F)c(F)c4C3)sc2n1 [Example 159, 3-amino-N-[(3R)-5,6-difluoro-7-(piperazin-1-yl)-3,4-dihydro-2H-1-benzopyran-3-yl]-4,6-dimethylthieno[2,3-b]pyridine-2-carboxamide]
Second: Cc1cc(C)c2c(N)c(C(=O)N[C@@H]3COc4cc(N5CCNCC5)c(F)c(F)c4C3)sc2n1 [Example 160, 3-amino-N-[(3S)-5,6-difluoro-7-(piperazin-1-yl)-3,4-dihydro-2H-1-benzopyran-3-yl]-4,6-dimethylthieno[2,3-b]pyridine-2-carboxamide]
The IC50 of the first is higher: over 2000 nM for the first, 200 to 2000 nM for the second.

First: COC[C@@H]1CN(c2ccc3c(c2)OC[C@H](NC(=O)c2sc4nc(C)ccc4c2N)C3)C[C@@H]1N [Example 161, 3-amino-N-[(3R)-7-[(3R,4R)-3-amino-4(methoxymethyl)pyrrolidin-1-yl]-3,4-dihydro-2H-1-benzopyran-3-yl]-6-methylthieno[2,3-b]pyridine-2-carboxamide]
Second: COC[C@H]1CN(c2ccc3c(c2)OC[C@H](NC(=O)c2sc4nc(C)ccc4c2N)C3)C[C@H]1N [Example 162, 3-amino-N-[(3R)-7-[(3S,4S)-3-amino-4-(methoxymethyl)pyrrolidin-1-yl]-3,4-dihydro-2H-1-benzopyran-3-yl]-6-methylthieno[2,3-b]pyridine-2-carboxamide]
The IC50 of the first is higher: 200 to 2000 nM for the first, 50 to 200 nM for the second. The second is the more potent here.

`COC[C@@H]1CN(c2ccc3c(c2)OC[C@H](NC(=O)c2sc4nc(C)ccc4c2N)C3)C[C@H]1N` [Example 163, 3-amino-N-[(3R)-7-[(3S,4R)-3-amino-4-(methoxymethyl)pyrrolidin-1-yl]-3,4-dihydro-2H-1-benzopyran-3-yl]-6-methylthieno[2,3-b]pyridine-2-carboxamide] and `COC[C@H]1CN(c2ccc3c(c2)OC[C@H](NC(=O)c2sc4nc(C)ccc4c2N)C3)C[C@@H]1N` [Example 164, 3-amino-N-[(3R)-7-[(3R,4S)-3-amino-4-(methoxymethyl)pyrrolidin-1-yl]-3,4-dihydro-2H-1-benzopyran-3-yl]-6-methylthieno[2,3-b]pyridine-2-carboxamide] fall in the same range of IC50: 200 to 2000 nM for the first, 200 to 2000 nM for the second.

`Cc1ccc2c(N)c(C(=O)N[C@H]3COc4cc(N5CC[C@@H]6CNC[C@@H]65)ccc4C3)sc2n1` [Example 165, N-[(3R)-7-[(3aR,6aR)-octahydropyrrolo[2,3-c]pyrrol-1-yl]-3,4-dihydro-2H-1-benzopyran-3-yl]-3-amino-6-methylthieno[2,3-b]pyridine-2-carboxamide] and `Cc1ccc2c(N)c(C(=O)N[C@H]3COc4cc(N5CC[C@H]6CNC[C@H]65)ccc4C3)sc2n1` [Example 166, N-[(3R)-7-[(3aS,6aS)-octahydropyrrolo[2,3-c]pyrrol-1-yl]-3,4-dihydro-2H-1-benzopyran-3-yl]-3-amino-6-methylthieno[2,3-b]pyridine-2-carboxamide] fall in the same range of IC50: 50 to 200 nM for the first, 50 to 200 nM for the second.

`Cc1ccc2c(N)c(C(=O)N[C@H]3COc4cc(N5C[C@H](N)[C@H](C(F)F)C5)ccc4C3)sc2n1` [Example 167, 3-amino-N-[(3R)-7-[(3R,4R)-3-amino-4-(difluoromethyl)pyrrolidin-1-yl]-3,4-dihydro-2H-1-benzopyran-3-yl]-6-methylthieno[2,3-b]pyridine-2-carboxamide] and `Cc1ccc2c(N)c(C(=O)N[C@H]3COc4cc(N5C[C@@H](N)[C@@H](C(F)F)C5)ccc4C3)sc2n1` [Example 168, 3-amino-N-[(3R)-7-[(3S,4S)-3-amino-4-(difluoromethyl)pyrrolidin-1-yl]-3,4-dihydro-2H-1-benzopyran-3-yl]-6-methylthieno[2,3-b]pyridine-2-carboxamide] fall in the same range of IC50: 200 to 2000 nM for the first, 200 to 2000 nM for the second.

`Cc1ccc2c(N)c(C(=O)N[C@H]3COc4cc(N5CC6CCC(C5)N6)cc(F)c4C3)oc2n1` [Example 170, 3-amino-N-[(3R)-7-{3,8-diazabicyclo[3.2.1]octan-3-yl}-5-fluoro-3,4-dihydro-2H-1-benzopyran-3-yl]-6-methylfuro[2,3-b]pyridine-2-carboxamide] and `Cc1ccc2c(N)c(C(=O)N[C@H]3COc4c(F)c(N5CC6CCC(C5)N6)cc(F)c4C3)oc2n1` [Example 172, 3-amino-N-[(3R)-7-{3,8-diazabicyclo[3.2.1]octan-3-yl}-5,8-difluoro-3,4-dihydro-2H-1-benzopyran-3-yl]-6-methylfuro[2,3-b]pyridine-2-carboxamide] cannot be ordered by IC50: over 2000 nM for the first, over 2000 nM for the second.

First: Cc1ccc2c(N)c(C(=O)N[C@H]3CCc4cc(N5CC6CCC(C5)N6)ccc4C3)oc2n1 [Example 171, 3-amino-N-[(2S)-6-{3,8-diazabicyclo[3.2.1]octan-3-yl]-1,2,3,4-tetrahydronaphthalen-2-yl]-6-methylfuro[2,3-b]pyridine-2-carboxamide]
Second: Cc1ccc2c(N)c(C(=O)N[C@H]3COc4nc(N5CC6CCC(C5)N6)ccc4C3)sc2n1 [Example 173, 3-amino-N-[(3R)-7-{3,8-diazabicyclo[3.2.1]octan-3-yl]-2H,3H,4H-pyrano[2,3-b]pyridin-3-yl]-6-methylthieno[2,3-b]pyridine-2-carboxamide]
The IC50 of the first is higher: over 2000 nM for the first, 200 to 2000 nM for the second.

`CO[C@H]1CN(c2cc(F)c3c(c2C#N)OC[C@H](NC(=O)c2sc4nc(C)cnc4c2N)C3)C[C@@H]1N` [Example 174, 7-amino-N-[(3R)-7-[(3S,4S)-3-amino-4-methoxypyrrolidin-1-yl]-8-cyano-5-fluoro-3,4-dihydro-2H-1-benzopyran-3-yl]-3-methylthieno[2,3-b]pyrazine-6-carboxamide] and `CO[C@H]1CN(c2cc(F)c3c(c2C#N)OC[C@H](NC(=O)c2sc4nc(C)ccc4c2N)C3)C[C@@H]1N` [Example 175, 3-amino-N-[(3R)-7-[(3S,4S)-3-amino-4-methoxypyrrolidin-1-yl]-8-cyano-5-fluoro-3,4-dihydro-2H-1-benzopyran-3-yl]-6-methylthieno[2,3-b]pyridine-2-carboxamide] cannot be ordered by IC50: over 2000 nM for the first, over 2000 nM for the second.

`CO[C@H]1CN(c2cc3c(cc2C#N)C[C@@H](NC(=O)c2sc4nc(C)cnc4c2N)CO3)C[C@@H]1N` [Example 176, 7-amino-N-[(3R)-7-[(3S,4S)-3-amino-4-methoxypyrrolidin-1-yl]-6-cyano-3,4-dihydro-2H-1-benzopyran-3-yl]-3-methylthieno[2,3-b]pyrazine-6-carboxamide] showed an IC50 of 50 to 200 nM.

From US11524966B1 (Valo Early Discovery, Inc., priority 2017, dated 2022)
